Converted amounts (≈) assume the structure as drawn.
Tested on: up to 32 different microorganisms
Experiment: in vitro antibacterial activity (MIC), agar dilution on Brain Heart Infusion (BHI) agar with Steers replicator
Format: cell-based
Conditions: unit assumed
Summary of the method: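 Up to 32 strains were replicator-inoculated (1:100, or 1:10 for Micrococcus and Streptococcus) onto BHI agar plates holding serial compound dilutions and kept 20-24 h at 35-37° C. Plates were read visually against drug-free growth controls, with erythromycin A run alongside; MIC was the lowest concentration giving no growth, slight haze or sparse colonies.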

[1] = Candida albicans CCH 442 (code TT)
[2] = Enterococcus faecism ATCC 8043 (code II)
[3] = Escherichia coli DC-2 (code SS)
[4] = Escherichia coli JUHL (code QQ)
[5] = Haemophilis influenzae DILL AMP R (code WW)
[6] = Micrococcus luteus ATCC 4698 (code PP)
[7] = Micrococcus luteus ATCC 9341 (code OO)
[8] = Mycobacterium smegmatis ATCC 114 (code UU)
[9] = Nocardia Asteroides ATCC9970 (code VV)
[10] = Staphylococcus aureus 1775 (code GG)
[11] = Staphylococcus aureus A5177 (code BB)
[12] = Staphylococcus aureus A-5278 (code CC)
[13] = Staphylococcus aureus ATCC 6538P (code AA)
[14] = Staphylococcus aureus CMX 553 (code FF)
[15] = Staphylococcus aureus CMX 642A (code DD)
[16] = Staphylococcus aureus NCTC10649M (code EE)
[17] = Staphylococcus epidermidis 3519 (code HH)
[18] = Streptococcus Pneumonia 5649 (code ZZA)
[19] = Streptococcus Pneumonia 5979 (code ZZ)
[20] = Streptococcus Pneumonia ATCC6303 (code XX)
[21] = Streptococcus Pneumonia GYR 1171 (code YY)
[22] = Streptococcus agalactiae CMX 508 (code KK)
[23] = Streptococcus bovis A-5169 (code JJ)
[24] = Streptococcus pyogenes 930 (code MM)
[25] = Streptococcus pyogenes EES61 (code LL)
[26] = Streptococcus pyogenes PIU 2548 (code NN)

CC[C@H]1OC(=O)[C@H](C)C(=O)[C@H](C)[C@@H](O[C@@H]2O[C@H](C)C[C@H](N(C)C)[C@H]2O)[C@@](C)(OCC=Cc2cnc3ccccc3c2)C[C@@H](C)C(=O)[C@H](C)[C@H]2NC(=O)O[C@@]21C [Example 104, Compound of Formula (IX): L is CO, T is NH, R is —CH2CH═CH-(3-quinolyl)]
MIC [1]: > 100 µg/mL | MIC [2]: 0.05 µg/mL | MIC [3]: 50 µg/mL | MIC [4]: 50 µg/mL | MIC (Escherichia coli SS (code RR)): 0.39 µg/mL | MIC [5]: 2 µg/mL | MIC [6]: 0.05 µg/mL | MIC [7]: ≤ 0.005 µg/mL | MIC [8]: 0.39 µg/mL | MIC [9]: 0.01 µg/mL | MIC [10]: > 100 µg/mL | MIC [11]: 0.05 µg/mL | MIC [12]: > 100 µg/mL | MIC [13]: 0.05 µg/mL | MIC [14]: 0.1 µg/mL | MIC [15]: 0.05 µg/mL | MIC [16]: 0.1 µg/mL | MIC [17]: 0.05 µg/mL | MIC [18]: 0.25 µg/mL | MIC [19]: 16 µg/mL | MIC [20]: 0.03 µg/mL | MIC [21]: 0.03 µg/mL | MIC [22]: 0.01 µg/mL | MIC [23]: 0.01 µg/mL | MIC [24]: 1.56 µg/mL | MIC [25]: ≤ 0.005 µg/mL | MIC [26]: 0.1 µg/mL

CCCO[C@@]1(C)C[C@@H](C)C(=O)[C@H](C)[C@@H](O)[C@](C)(O)[C@@H](CC)OC(=O)[C@H](C)C(=O)[C@H](C)[C@H]1O[C@@H]1O[C@H](C)C[C@H](N(C)C)[C@H]1O [Example 3, Compound of Formula (VIII): X is O, R is propyl]
MIC [1]: > 100 µg/mL | MIC [2]: 25 µg/mL | MIC [3]: > 100 µg/mL | MIC [4]: > 100 µg/mL | MIC (Escherichia coli SS (code RR)): 50 µg/mL | MIC [6]: 100 µg/mL | MIC [7]: 12.5 µg/mL | MIC [8]: > 100 µg/mL | MIC [9]: 12.5 µg/mL | MIC [10]: > 100 µg/mL | MIC [11]: > 100 µg/mL | MIC [12]: > 100 µg/mL | MIC [13]: 25 µg/mL | MIC [14]: 25 µg/mL | MIC [15]: 100 µg/mL | MIC [16]: 25 µg/mL | MIC [17]: 50 µg/mL | MIC [22]: 25 µg/mL | MIC [23]: 25 µg/mL | MIC [24]: > 100 µg/mL | MIC [25]: 100 µg/mL | MIC [26]: 100 µg/mL

CCC1OC(=O)C(C)C(=O)C(C)C(OC2OC(C)CC(N(C)C)C2O)C(C)(OCC=Cc2cnc3ccc(N)cc3c2)CC(C)C(=O)C(C)C2NC(=O)OC12C (stereo not shown) [Example 201, R is —CH2CH═CH-(6-amino-3-quinolyl)]
MIC (organism code AA): 0.1 µg/mL (≈ 0.128 µM) | MIC (organism code BB): 0.1 µg/mL (≈ 0.128 µM) | MIC (organism code CC): > 100 µg/mL | MIC (organism code DD): 0.1 µg/mL (≈ 0.128 µM) | MIC (organism code EE): 0.1 µg/mL (≈ 0.128 µM) | MIC (organism code FF): 0.1 µg/mL (≈ 0.128 µM) | MIC (organism code GG): > 100 µg/mL | MIC (organism code HH): 0.01 µg/mL (≈ 0.0128 µM) | MIC (organism code II): 0.01 µg/mL (≈ 0.0128 µM) | MIC (organism code JJ): 0.01 µg/mL (≈ 0.0128 µM) | MIC (organism code KK): 0.01 µg/mL (≈ 0.0128 µM) | MIC (organism code LL): 0.01 µg/mL (≈ 0.0128 µM) | MIC (organism code MM): 1.56 µg/mL (≈ 2 µM) | MIC (organism code NN): 0.2 µg/mL (≈ 0.256 µM) | MIC (organism code OO): 0.05 µg/mL (≈ 0.064 µM) | MIC (organism code PP): 0.1 µg/mL (≈ 0.128 µM) | MIC (organism code QQ): 50 µg/mL (≈ 64 µM) | MIC (organism code RR): 0.1 µg/mL (≈ 0.128 µM) | MIC (organism code SS): 50 µg/mL (≈ 64 µM) | MIC (organism code TT): > 100 µg/mL | MIC (organism code UU): 6.2 µg/mL (≈ 7.94 µM) | MIC (organism code VV): 0.2 µg/mL (≈ 0.256 µM) | MIC (organism code WW): 2 µg/mL (≈ 2.56 µM) | MIC (organism code XX): 0.03 µg/mL (≈ 0.0384 µM) | MIC (organism code YY): 0.03 µg/mL (≈ 0.0384 µM) | MIC (organism code ZZ): 16 µg/mL (≈ 20.5 µM) | MIC (organism code ZZA): 1 µg/mL (≈ 1.28 µM)

CCC1OC(=O)C(C)C(=O)C(C)C(OC2OC(C)CC(N(C)C)C2O)C(C)(OCC=Cc2cccc([N+](=O)[O-])c2)CC(C)C(=O)C(C)C2NC(=O)OC12C (stereo not shown) [Example 193, R is —CH2CH═CH-(3-nitrophenyl)]
MIC [1]: > 100 µg/mL | MIC [2]: 0.02 µg/mL (≈ 0.0263 µM) | MIC [3]: > 100 µg/mL | MIC [4]: 100 µg/mL (≈ 132 µM) | MIC (Escherichia coli SS (code RR)): 0.2 µg/mL (≈ 0.263 µM) | MIC [6]: 0.1 µg/mL (≈ 0.132 µM) | MIC [7]: 0.01 µg/mL (≈ 0.0132 µM) | MIC [8]: 0.39 µg/mL (≈ 0.513 µM) | MIC [9]: 0.05 µg/mL (≈ 0.0658 µM) | MIC [10]: > 100 µg/mL | MIC [11]: 0.1 µg/mL (≈ 0.132 µM) | MIC [12]: > 100 µg/mL | MIC [13]: 0.05 µg/mL (≈ 0.0658 µM) | MIC [14]: 0.1 µg/mL (≈ 0.132 µM) | MIC [15]: 0.1 µg/mL (≈ 0.132 µM) | MIC [16]: 0.1 µg/mL (≈ 0.132 µM) | MIC [17]: 0.1 µg/mL (≈ 0.132 µM) | MIC [22]: 0.01 µg/mL (≈ 0.0132 µM) | MIC [23]: 0.01 µg/mL (≈ 0.0132 µM) | MIC [24]: 25 µg/mL (≈ 32.9 µM) | MIC [25]: ≤ 0.005 µg/mL | MIC [26]: 0.05 µg/mL (≈ 0.0658 µM)

CCC1OC(=O)C(C)C(=O)C(C)C(OC2OC(C)CC(N(C)C)C2O)C(C)(OCC=Cc2cnc3ccc(C(N)=O)cc3c2)CC(C)C(=O)C(C)C2NC(=O)OC12C (stereo not shown) [Example 217, R is —CH2CH═CH-(6-aminocarbonyl-3-quinolyl)]
MIC (organism code AA): 0.2 µg/mL (≈ 0.247 µM) | MIC (organism code BB): 0.39 µg/mL (≈ 0.482 µM) | MIC (organism code CC): > 100 µg/mL | MIC (organism code DD): 0.39 µg/mL (≈ 0.482 µM) | MIC (organism code FF): 0.2 µg/mL (≈ 0.247 µM) | MIC (organism code GG): > 100 µg/mL | MIC (organism code HH): 0.39 µg/mL (≈ 0.482 µM) | MIC (organism code II): 0.2 µg/mL (≈ 0.247 µM) | MIC (organism code JJ): 0.02 µg/mL (≈ 0.0247 µM) | MIC (organism code KK): 0.02 µg/mL (≈ 0.0247 µM) | MIC (organism code LL): 0.02 µg/mL (≈ 0.0247 µM) | MIC (organism code MM): 0.78 µg/mL (≈ 0.964 µM) | MIC (organism code NN): 0.78 µg/mL (≈ 0.964 µM) | MIC (organism code OO): 0.1 µg/mL (≈ 0.124 µM) | MIC (organism code PP): 0.39 µg/mL (≈ 0.482 µM) | MIC (organism code QQ): 50 µg/mL (≈ 61.8 µM) | MIC (organism code RR): 0.39 µg/mL (≈ 0.482 µM) | MIC (organism code SS): > 100 µg/mL | MIC (organism code TT): > 100 µg/mL | MIC (organism code UU): 12.5 µg/mL (≈ 15.5 µM) | MIC (organism code VV): 0.78 µg/mL (≈ 0.964 µM) | MIC (organism code WW): 2 µg/mL (≈ 2.47 µM) | MIC (organism code XX): 0.03 µg/mL (≈ 0.0371 µM) | MIC (organism code YY): 0.03 µg/mL (≈ 0.0371 µM) | MIC (organism code ZZ): 2 µg/mL (≈ 2.47 µM) | MIC (organism code ZZA): 2 µg/mL (≈ 2.47 µM)

CCC1OC(=O)C(C)C(=O)C(C)C(OC2OC(C)CC(N(C)C)C2O)C(C)(OCC=Cc2cncc3ccccc23)CC(C)C(=O)C(C)C2NC(=O)OC12C (stereo not shown) [Example 187, R is —CH2CH═CH-(4-isoquinolinyl)]
MIC [1]: > 100 µg/mL | MIC [2]: 0.02 µg/mL (≈ 0.0261 µM) | MIC [3]: > 100 µg/mL | MIC [4]: 100 µg/mL (≈ 131 µM) | MIC (Escherichia coli SS (code RR)): 0.39 µg/mL (≈ 0.509 µM) | MIC [5]: 2 µg/mL (≈ 2.61 µM) | MIC [6]: 0.02 µg/mL (≈ 0.0261 µM) | MIC [7]: 0.02 µg/mL (≈ 0.0261 µM) | MIC [8]: 0.78 µg/mL (≈ 1.02 µM) | MIC [9]: 0.1 µg/mL (≈ 0.131 µM) | MIC [10]: > 100 µg/mL | MIC [11]: 0.1 µg/mL (≈ 0.131 µM) | MIC [12]: > 100 µg/mL | MIC [13]: 0.2 µg/mL (≈ 0.261 µM) | MIC [14]: 0.1 µg/mL (≈ 0.131 µM) | MIC [15]: 0.1 µg/mL (≈ 0.131 µM) | MIC [16]: 0.1 µg/mL (≈ 0.131 µM) | MIC [17]: 0.1 µg/mL (≈ 0.131 µM) | MIC [18]: 0.25 µg/mL (≈ 0.326 µM) | MIC [19]: > 16 µg/mL | MIC [20]: 0.03 µg/mL (≈ 0.0392 µM) | MIC [21]: 0.03 µg/mL (≈ 0.0392 µM) | MIC [22]: 0.02 µg/mL (≈ 0.0261 µM) | MIC [23]: ≤ 0.005 µg/mL | MIC [24]: 25 µg/mL (≈ 32.6 µM) | MIC [25]: 0.01 µg/mL (≈ 0.0131 µM) | MIC [26]: 0.1 µg/mL (≈ 0.131 µM)
